Test system: bone marrow cells (megakaryocyte colony formation)
Assay: Megakaryocyte colony formation-stimulating activity (ACHE-stained colonies, bone marrow cells with IL-3)
Type: cell-based, BALB/c mouse
Conditions: with IL-3 100 U/ml, 7 days
Description: An eight-weeks-old BALB/c mouse was killed. Its femurs and cervical vertebrae were taken out, and both end sections thereof were cut off. Bone marrow cells were collected from the pieces cut off from the femurs and cervical vertebrae using a syringe containing IMDM (430-2200EA prepared by Gibco Co.), and then blown into a test tube. The test tube was allowed to stand for 5 minutes, and the supernatant was collected with a pipet. To a reaction mixture comprising the bone marrow cells (50,000 cells), bovine serum albumin (2%: A4508 made by Sigma Co.), transferrin (600 μg/ml 652202 made by Boehringer Mannheim Co.), IL-3 (100 U/ml), cholesterol (16 μg/ml: 036-0641 made by Wako Co.) and agar (0.6%: 0142-02 made by Difco Laboratories) were separately added the test compounds at various concentrations, and 1 ml each of the mixtures was put into a 35-mm dish (Lux Co.), followed by incubation under the conditions of 37° C., 5% CO2 and a humidity of 95% or more for 7 days. Separately, IL-3 alone was added to the bone marrow cells to prepare a control, whereas a positive control was prepared by adding 200 U/ml IL-6 to the above-mentioned reaction mixture. After the incubation was completed, the agar was dried over a filter paper (1001-055 made by Whatman Co.) and then fixed with 2.5% glutaraldehyde, followed by acetylcholinesterase staining (ACHE staining).
The ACHE staining was carried out by the method described below.
ACHE staining: To each sample was added a solution comprising 0.67 mg/ml acetylthiocholine iodide, 2.94 mg/ml sodium citrate, 7.5 mg/ml copper (II) sulfate and 1.65 mg/ml potassium ferricyanide, and the mixture was allowed to stand at room temperature in the dark for 4-6 hours.
A group of 4 or more megakaryocytes which were stained reddish brown was regarded as a colony, and the number of colonies per dish was calculated using a microscope. The results are shown in Table 2 as relative values to the control.

Structure (SMILES) | Relative value (megakaryocyte colonies, control = 100) (0.1 nM) | Relative value (megakaryocyte colonies, control = 100) (1 nM, 10080 min, 0.001 µM) | Relative value (megakaryocyte colonies, control = 100) (10 nM) | Relative value (megakaryocyte colonies, control = 100) (1 nM) | Relative value (megakaryocyte colonies, control = 100) (0.01 nM) | Relative value (megakaryocyte colonies, control = 100) (100 nM)
CNC1CC2OC(C)(C1OC)n1c3ccccc3c3c4c(c5c6ccccc6n2c5c31)C(=O)N(C)C4 (centres unmarked) [Compound I-22] | 116 | 120 | 100 | – | – | –
CCCCCCN1Cc2c(c3c4ccccc4n4c3c3c2c2ccccc2n3C2(C)OC4CC(NC)C2OC)C1=O (centres unmarked) [Compound I-20] | 107 | – | 144 | 131 | – | –
CNC1CC2OC(C)(C1OC)n1c3ccccc3c3c4c(c5c6cc(Br)ccc6n2c5c31)C(=O)NC4 (centres unmarked) [Compound I-29] | 90 | – | 112 | 113 | – | –
CNC1CC2OC(C)(C1OC)n1c3ccccc3c3c4c(c5c6ccccc6n2c5c31)C(=O)N(C)C4O (single isomer, unassigned) [Compound I-23b] | 114 | – | – | – | – | –
COC1C(N(C)C(C)=O)CC2OC1(C)n1c3ccccc3c3c4c(c5c6ccccc6n2c5c31)C(=O)NC4 (centres unmarked) [Compound I-28] | 89 | – | 95 | 101 | – | –
COC(=O)C1(O)CC2OC1(C)n1c3ccccc3c3c4c(c5c6ccccc6n2c5c31)C(=O)NC4O (centres unmarked) [Compound I-4] | – | – | – | 115 | 94.3 | –
COC(=O)C1(OC)CC2OC1(C)n1c3ccccc3c3c4c(c5c6ccccc6n2c5c31)C(=O)NC4 (centres unmarked) [Compound I-36] | 130 | – | 173 | 172 | – | –
CCCOc1ccc2c(c1)c1c3c(c4c5ccccc5n5c4c1n2C1CC(O)(C(=O)OC)C5(C)O1)CNC3=O (centres unmarked) [Compound I-6] | – | – | – | 132 | 112 | 117
CNC1CC2OC(C)(C1OC)n1c3ccccc3c3c4c(c5c6ccccc6n2c5c31)C(=O)N(Cc1ccccc1)C4 (centres unmarked) [Compound I-21] | 95 | – | 97 | 105 | – | –
COC(=O)C1(OC(C)=O)CC2OC1(C)n1c3ccccc3c3c4c(c5c6cc(C(C)=O)ccc6n2c5c31)C(=O)N(C(C)=O)C4 (centres unmarked) [Compound I-37] | 82 | – | 114 | 124 | – | –
COC(=O)C1(O)CC2OC1(C)n1c3ccccc3c3c4c(c5c6cc(S(=O)(=O)N7CCN(C)CC7)ccc6n2c5c31)C(=O)NC4 (centres unmarked) [Compound I-11] | 88.4 | – | 116 | 95 | – | –
CCCOC(=O)C1(O)CC2OC1(C)n1c3ccccc3c3c4c(c5c6ccccc6n2c5c31)C(=O)NC4 (centres unmarked) [Compound I-42] | 91 | – | 122 | 107 | – | –
CCCN1C(=O)c2c(c3c4ccccc4n4c3c3c2c2ccccc2n3C2CC(O)(C(=O)OC)C4(C)O2)C1=O (centres unmarked) [Compound I-44] | 126 | – | 118 | 70 | – | –
CNC1CC2OC(C)(C1OC)n1c3ccccc3c3c4c(c5c6cc(C=O)ccc6n2c5c31)C(=O)N(C)C4 (centres unmarked) [Compound I-50] | – | – | 128 | 118 | – | –
CCCOc1ccc2c(c1)c1c3c(c4c5cc(OCCC)ccc5n5c4c1n2C1CC(O)(C(=O)OC)C5(C)O1)CNC3=O (centres unmarked) [Compound I-12] | 133 | – | 122 | 113 | – | –
CC(C)OC(=O)C1(O)CC2OC1(C)n1c3ccccc3c3c4c(c5c6ccccc6n2c5c31)C(=O)NC4 (centres unmarked) [Compound I-45] | 103 | – | 100 | 143 | – | –
COC1C(N(C)C(=O)OCc2ccccc2)CC2OC1(C)n1c3ccccc3c3c4c(c5c6ccccc6n2c5c31)C(=O)N(C)C4 (centres unmarked) [Compound I-18] | 118 | – | 84 | 88 | – | –

Structure (SMILES) | Relative value (megakaryocyte colonies, control = 100) (0.1 nM) | Relative value (megakaryocyte colonies, control = 100) (1 nM, 10080 min, 0.001 µM) | Relative value (megakaryocyte colonies, control = 100) (10 nM) | Relative value (megakaryocyte colonies, control = 100) (1 nM) | Relative value (megakaryocyte colonies, control = 100) (0.01 nM) | Relative value (megakaryocyte colonies, control = 100) (100 nM)
CCCOc1ccc2c(c1)c1c3c(c4c5ccccc5n5c4c1n2C1CC(OC)(C(=O)OC)C5(C)O1)CN(C)C3=O (centres unmarked) [Compound I-38] | 112 | – | 136 | 111 | – | –
CCCN1Cc2c(c3c4ccccc4n4c3c3c2c2ccccc2n3C2(C)OC4CC(NC)C2OC)C1=O (centres unmarked) [Compound I-19] | 118 | – | 156 | 94 | – | –
CNC1CC2OC(C)(C1OC)n1c3ccccc3c3c4c(c5c6ccccc6n2c5c31)C(=O)N(N)C4=O (centres unmarked) [Compound I-3] | – | – | – | 127 | 98.8 | –
CCCCOC(=O)C1(O)CC2OC1(C)n1c3ccccc3c3c4c(c5c6ccccc6n2c5c31)C(=O)NC4=O (centres unmarked) [Compound I-43] | 81 | – | 87 | 118 | – | –
CCCCCCN(C)C1CC2OC(C)(C1OC)n1c3ccccc3c3c4c(c5c6ccccc6n2c5c31)C(=O)NC4 (centres unmarked) [Compound I-27] | 76 | – | 97 | 109 | – | –
O=C1NCc2c1c1c3ccccc3[nH]c1c1[nH]c3ccccc3c21 [Compound I-16] | 118 | – | 100 | 88.3 | – | –
CC12OC(CC1O)n1c3ccccc3c3c4c(c5c6ccccc6n2c5c31)CNC4=O (centres unmarked) [Compound I-46] | 97 | – | 112 | 131 | – | –
CCCN(C)C1CC2OC(C)(C1OC)n1c3ccccc3c3c4c(c5c6ccccc6n2c5c31)C(=O)N(C)C4 (centres unmarked) [Compound I-24] | 88 | – | 109 | 87 | – | –
CCSC1NC(=O)c2c1c1c3ccccc3n3c1c1c2c2ccccc2n1C1CC(O)(C(=O)OC)C3(C)O1 (centres unmarked) [Compound I-14] | 118 | – | 116 | 115 | – | –
CCCCOC(=O)C1(O)CC2OC1(C)n1c3ccccc3c3c4c(c5c6ccccc6n2c5c31)C(=O)NC4 (centres unmarked) [Compound I-15] | 120 | – | 132 | 121 | – | –
COC(=O)C1(OC)CC2OC1(C)n1c3ccccc3c3c4c(c5c6ccccc6n2c5c31)C(=O)N(C)C4 (centres unmarked) [Compound I-7] | – | – | – | 101 | 93 | 108
COC(=O)C1(O)CC2OC1(C)n1c3ccccc3c3c4c(c5c6ccccc6n2c5c31)C(=O)N(Cc1ccccc1)C4=O (centres unmarked) [Compound I-13] | 100 | – | 125 | 113 | – | –
COCOC1(C(=O)OC)CC2OC1(C)n1c3ccccc3c3c4c(c5c6ccccc6n2c5c31)C(=O)NC4 (centres unmarked) [Compound I-39] | 123 | – | 92 | 109 | – | –
CNC1CC2OC(C)(C1OC)n1c3ccccc3c3c4c(c5c6ccccc6n2c5c31)C(=O)N(C)C4=O (centres unmarked) [Compound I-9] | 135 | – | 92.2 | 117 | – | –
CCCCCCOC(=O)C1(O)CC2OC1(C)n1c3ccccc3c3c4c(c5c6ccccc6n2c5c31)C(=O)NC4 (centres unmarked) [Compound I-5] | – | – | – | 104 | 112 | 103
CNC1CC2OC(C)(C1OC)n1c3ccccc3c3c4c(c5c6ccccc6n2c5c31)C(=O)N(C)C4O (single isomer, unassigned) [Compound I-23a] | 114 | – | – | – | – | –
